Experimental data as given in US9108983B2, “Pyrrole compounds, a process for their preparation and pharmaceutical compositions containing them” (LES LABORATOIRES SERVIER, priority 2013, dated 2015).
Where a name gives a salt, the structure may show the parent alone. Read-outs that look alike come from different tables or passages of the source.

How the values were obtained:
[1] = biological target: Bcl-2 protein (histag-Bcl-2, UniProtKB P10415) (Homo sapiens (Human), UniProt P10415); experiment: Inhibition of Bcl-2 by the fluorescence polarisation technique; assay type: binding; details: incubation for 2 hours, read-out: IC50 (nM) Bcl-2 FP
Bcl-2 protein, sequence (P10415 whole entry): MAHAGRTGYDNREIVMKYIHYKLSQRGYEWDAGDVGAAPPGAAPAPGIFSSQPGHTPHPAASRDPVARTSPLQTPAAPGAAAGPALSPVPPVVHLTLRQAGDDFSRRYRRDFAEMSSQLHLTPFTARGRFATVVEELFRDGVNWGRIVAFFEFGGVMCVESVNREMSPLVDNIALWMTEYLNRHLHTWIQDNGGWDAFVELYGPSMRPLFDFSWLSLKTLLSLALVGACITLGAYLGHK
Protocol: The fluorescence polarisation tests were carried out on microplates (384 wells). The Bcl-2 protein, labelled (histag-Bcl-2 such that Bcl-2 corresponds to the UniProtKB® primary accession number: P10415), at a final concentration of 2.50×10^−8 M, is mixed with a fluorescent peptide (Fluorescein-[…]), at a final concentration of 1.00×10^−8 M in a buffer solution (Hepes 10 mM, NaCl 150 mM, Tween20 0.05%, pH 7.4), in the presence or absence of increasing concentrations of test compounds. After incubation for 2 hours, the fluorescence polarisation is measured.

[2] = system: RS4;11 leukaemia tumour line; experiment: In vitro cytotoxicity (Microculture Tetrazolium Assay); assay type: cell-based; details: RS4;11 cells, exposed for 48 hours, cell viability, read-out: IC50 (nM) MTT RS4;11
Protocol: The cytotoxicity studies were carried out on the RS4;11 leukaemia tumour line.
The cells are distributed onto microplates and exposed to the test compounds for 48 hours.
The cell viability is then quantified by a colorimetric assay, the Microculture Tetrazolium Assay (Cancer Res., 1987, 47, 939-942).

Compound | IC50 ([2]; Homo sapiens, RS4-11, 48 h) [nM] | also measured
5-(5-Fluoro-4-methoxy-2-{[(3S)-3-(morpholin-4-ylmethyl)-3,4-dihydroisoquinolin-2(1H)-yl]carbonyl}phenyl)-N-(4-hydroxyphenyl)-1,2-dimethyl-N-(1-methyl-2,3-dihydro-1H-pyrrolo[2,3-b]pyridin-5-yl)-1H-pyrrole-3-carboxamide hydrochloride [Example 210] | – | IC50 [1]: 8.8 nM; IC50 [2]: 47.2 nM
Cc1c(C(=O)N(c2ccc(O)cc2)c2cnn(C3CCOC3)c2)cc(-c2cc(F)ccc2C(=O)N2Cc3ccccc3C[C@H]2CN2CCOCC2)n1C (single isomer, unassigned) [Example 402, 5-(5-Fluoro-2-{[(3S)-3-(morpholin-4-ylmethyl)-3,4-dihydroisoquinolin-2(1H)-yl]carbonyl}phenyl)-N-(4-hydroxyphenyl)-1,2-dimethyl-N-{1-[(3S or R)-tetrahydrofuran-3-yl]-1H-pyrazol-4-yl}-1H-pyrrole-3-carboxamide hydrochloride] | 241 | IC50 [1]: 26.1 nM
Cc1c(C(=O)N(c2ccc(O)cc2)c2cnn(C3CCOC3)c2)cc(-c2cc(F)ccc2C(=O)N2Cc3ccccc3C[C@H]2CN2CCOCC2)n1C (single isomer, unassigned) [Example 403, 5-(5-Fluoro-2-{[(3S)-3-(morpholin-4-ylmethyl)-3,4-dihydroisoquinolin-2(1H)-yl]carbonyl}phenyl)-N-(4-hydroxyphenyl)-1,2-dimethyl-N-{1-[(3R or S)-tetrahydrofuran-3-yl]-1H-pyrazol-4-yl}-1H-pyrrole-3-carboxamide hydrochloride] | – | IC50 [1]: 24.2 nM; IC50 ([2]; hydrochloride): 289 nM
Cc1c(C(=O)N(c2ccc(O)cc2)c2cnn(C)c2)cc(-c2cc(Cl)ccc2C(=O)N2Cc3ccccc3C[C@H]2C)n1C [Example 1, 5-(5-Chloro-2-{[(3R)-3-methyl-3,4-dihydroisoquinolin-2(1H)-yl]carbonyl}phenyl)-N-(4-hydroxyphenyl)-1,2-dimethyl-N-(1-methyl-1H-pyrazol-4-yl)-1H-pyrrole-3-carboxamide] | 33.6 | IC50 [1]: 5 nM
Cn1cc(C(=O)N(c2ccccc2)c2ccccc2)cc1-c1ccccc1C(=O)N1Cc2ccccc2C[C@H]1CN [Example 2, 5-(2-{[(3S)-3-(Aminomethyl)-3,4-dihydroisoquinolin-2(1H)-yl]carbonyl}phenyl)-1-methyl-N,N-diphenyl-1H-pyrrole-3-carboxamide] | 1660 | –
CN1CCN(C[C@@H]2Cc3ccccc3CN2C(=O)c2ccc(Cl)cc2-c2cc(C(=O)N(c3ccc(O)cc3)c3ccc4[nH]ccc4c3)cn2C)CC1 [Example 3, 5-(5-Chloro-2-{[(3S)-3-[(4-methylpiperazin-1-yl)methyl]-3,4-dihydroisoquinolin-2(1H)-yl]carbonyl}phenyl)-N-(4-hydroxyphenyl)-N-(1H-indol-5-yl)-1-methyl-1H-pyrrole-3-carboxamide] | 94.9 | IC50 [1]: 24.6 nM
CN1CCN(C[C@@H]2Cc3ccccc3CN2C(=O)c2cc3c(cc2-c2cc(C(=O)N(c4ccc(O)cc4)c4ccc5[nH]ccc5c4)cn2C)OCO3)CC1 [Example 4, N-(4-Hydroxyphenyl)-N-(1H-indol-5-yl)-1-methyl-5-(6-{[(3S)-3-[(4-methylpiperazin-1-yl)methyl]-3,4-dihydroisoquinolin-2(1H)-yl]carbonyl}-1,3-benzodioxol-5-yl)-1H-pyrrole-3-carboxamide] | 231 | –
CC(C)n1cc(C(=O)N(c2ccc(O)cc2)c2ccc3c(ccn3C)c2)cc1-c1cc(Cl)ccc1C(=O)N1Cc2ccccc2C[C@H]1CN1CCN(C)CC1 [Example 8] | – | IC50 [2]: 255 nM
Cc1c(C(=O)N(c2ccccc2)c2ccc(O)cc2)cc(-c2cc(Cl)ccc2C(=O)N2Cc3ccccc3C[C@H]2COCCN(C)C)n1C [Example 60, 5-(5-Chloro-2-{[(3S)-3-{[2-(dimethylamino)ethoxy]methyl}-3,4-dihydroisoquinolin-2(1H)-yl]carbonyl}phenyl)-N-(4-hydroxyphenyl)-1,2-dimethyl-N-phenyl-1H-pyrrole-3-carboxamide hydrochloride] | 18.3 | –
Cc1c(C(=O)N(c2ccc(O)cc2)c2cnn(C)c2)cc(-c2cc(F)ccc2C(=O)N2Cc3ccccc3C[C@H]2CN2CCOCC2)n1C [Example 67, 5-(5-Fluoro-2-{[(3S)-3-(morpholin-4-ylmethyl)-3,4-dihydroisoquinolin-2(1H)-yl]carbonyl}phenyl)-N-(4-hydroxyphenyl)-1,2-dimethyl-N-(1-methyl-1H-pyrazol-4-yl)-1H-pyrrole-3-carboxamide hydrochloride] | 98.6 | –
C[C@@H]1Cc2ccccc2CN1C(=O)c1cc2c(cc1-c1cc(C(=O)N(c3ccc(O)cc3)c3cnn(C)c3)c(CCN3CCOCC3)n1C)OCO2 [Example 81, N-(4-Hydroxyphenyl)-1-methyl-5-(6-{[(3R)-3-methyl-3,4-dihydroisoquinolin-2(1H)-yl]carbonyl}-1,3-benzodioxol-5-yl)-N-(1-methyl-1H-pyrazol-4-yl)-2-[2-(morpholin-4-yl)ethyl]-1H-pyrrole-3-carboxamide hydrochloride] | 249 | –
Cc1c(N(C(=O)c2cc(-c3cc(Cl)ccc3C(=O)N3Cc4ccccc4C[C@H]3CN3CCOCC3)n(C)c2C)c2ccc(O)cc2)cc(C#N)n1C [Example 386, 5-(5-Chloro-2-{[(3S)-3-(morpholin-4-ylmethyl)-3,4-dihydroisoquinolin-2(1H)-yl]carbonyl}phenyl)-N-(5-cyano-1,2-dimethyl-1H-pyrrol-3-yl)-N-(4-hydroxyphenyl)-1,2-dimethyl-1H-pyrrole-3-carboxamide hydrochloride] | – | IC50 ([2]; Homo sapiens): 9.23 nM
Cl.[2H]C([2H])([2H])n1cc(N(C(=O)c2cc(-c3cc(F)ccc3C(=O)N3Cc4ccccc4C[C@H]3CN3CCOCC3)n(C)c2C)c2ccc(O)cc2)cn1 [Example 420, 5-(5-Fluoro-2-{[(3S)-3-(morpholin-4-ylmethyl)-3,4-dihydroisoquinolin-2(1H)-yl]carbonyl}phenyl)-N-(4-hydroxyphenyl)-1,2-dimethyl-N-[1-(trideuteriomethyl)-1H-pyrazol-4-yl]-1H-pyrrole-3-carboxamide hydrochloride] | 51.8 | –
Cc1c(C(=O)N(c2ccccc2)c2cnc3c(ccn3C)c2)cc(-c2cc(F)c(O)cc2C(=O)N2Cc3ccccc3C[C@H]2CN2CCOCC2)n1C [Example 443, 5-(5-Fluoro-4-hydroxy-2-{[(3S)-3-(morpholin-4-ylmethyl)-3,4-dihydroisoquinolin-2(1H)-yl]carbonyl}phenyl)-1,2-dimethyl-N-(1-methyl-1H-pyrrolo[2,3-b]pyridin-5-yl)-N-phenyl-1H-pyrrole-3-carboxamide] | 57.9 | –
Cl.[2H]C([2H])([2H])n1c(C#N)cc(N(C(=O)c2cc(-c3cc(Cl)ccc3C(=O)N3Cc4ccccc4C[C@H]3CN3CCOCC3)n(C)c2C)c2ccc(O)cc2)c1C [Example 449, 5-(5-Chloro-2-{[(3S)-3-(morpholin-4-ylmethyl)-3,4-dihydroisoquinolin-2(1H)-yl]carbonyl}phenyl)-N-[5-cyano-2-methyl-1-(trideuteriomethyl)-1H-pyrrol-3-yl]-N-(4-hydroxyphenyl)-1,2-dimethyl-1H-pyrrole-3-carboxamide hydrochloride] | – | IC50 ([2]; Homo sapiens): 11.9 nM
COc1ccc(N(C(=O)c2cc(-c3cc(Cl)ccc3C(=O)N3Cc4ccccc4C[C@H]3CN3CCOCC3)n(C)c2C)c2ccc(O)cc2)nc1C#N [Example 457, 5-(5-Chloro-2-{[(3S)-3-(morpholin-4-ylmethyl)-3,4-dihydroisoquinolin-2(1H)-yl]carbonyl}phenyl)-N-(6-cyano-5-methoxypyridin-2-yl)-N-(4-hydroxyphenyl)-1,2-dimethyl-1H-pyrrole-3-carboxamide hydrochloride] | 80.4 | –
CCOc1ncc(N(C(=O)c2cc(-c3cc(F)ccc3C(=O)N3Cc4ccccc4C[C@H]3CN3CCOCC3)n(C)c2C)c2ccc(O)cc2)cn1 [Example 463, N-(2-Ethoxypyrimidin-5-yl)-5-(5-fluoro-2-{[(3S)-3-(morpholin-4-ylmethyl)-3,4-dihydroisoquinolin-2(1H)-yl]carbonyl}phenyl)-N-(4-hydroxyphenyl)-1,2-dimethyl-1H-pyrrole-3-carboxamide] | 40.8 | –
Cc1c(N(C(=O)c2cc(-c3ccc(Cl)cc3C(=O)N3Cc4ccccc4C[C@H]3CN3CCOCC3)n(C)c2C)c2ccc(O)cc2)cc(C#N)n1C [Example 465, 5-(4-Chloro-2-{[(3S)-3-(morpholin-4-ylmethyl)-3,4-dihydroisoquinolin-2(1H)-yl]carbonyl}phenyl)-N-(5-cyano-1,2-dimethyl-1H-pyrrol-3-yl)-N-(4-hydroxyphenyl)-1,2-dimethyl-1H-pyrrole-3-carboxamide hydrochloride] | 50.6 | –
Cc1c(C(=O)N(c2ccc(O)cc2)c2cnn(C)c2)cc(-c2ccc(Cl)cc2C(=O)N2Cc3ccccc3C[C@H]2CN2CCOCC2)n1C [Example 466, 5-(4-Chloro-2-{[(3S)-3-(morpholin-4-ylmethyl)-3,4-dihydroisoquinolin-2(1H)-yl]carbonyl}phenyl)-N-(4-hydroxyphenyl)-1,2-dimethyl-N-(1-methyl-1H-pyrazol-4-yl)-1H-pyrrole-3-carboxamide hydrochloride] | 493 | –
